The test system of the assay is chaperone-mediated autophagy (CMA) in NIH 3T3 fibroblasts. The assay can be described thus: Photoswitchable KFERQ-Dendra CMA reporter assay in NIH 3T3 fibroblasts. The class given is cell-based. The protocol:
The photoactivatable CMA reporter assay was constructed by inserting a sequence of 21 amino acid of Ribonuclease A bearing the CMA-targeting motif in the N-terminus multicloning site of the photoactivatable protein mCherryl or the photoswitchable protein Dendra 2.
NIH 3T3 fibroblasts were stably transduced with a photoconvertible CMA reporter, KFERQ-Dendra. were photoswitched by exposure to a […] (constant current) LED (Norlux, 405 nm) for 10 minutes and at the desired times fixed in 3% formaldehyde. Test cells were exposed to the indicated concentrations of the compounds for 12 hours (FIG. 3A) or 24 hours (FIG. 3B). Cells were imaged using high content microscopy (Operetta, Perkin Elmer) or by capturing images with an Axiovert 200 fluorescence microscope (Zeiss) with apotome and equipped with a 63/1.4 NA oil objective lens and red (ex. 570/30 nm, em. 615/30 nm), cyan (ex. 365/50 nm and em. 530/45 nm) and green (ex. 475/40 nm and em. 535/45 nm) filter sets (Chroma). Images were acquired with a high-resolution CCD camera after optical sectioning through the apotome. CMA activity measured as the average number of fluorescent puncta (CMA active lysosomes) per cell. Values are expressed relative to values in untreated cells that were assigned an arbitrary value of 1 and are mean of >2,500 cells counted per condition. The S.D. in all instances was <0.01% mean value. Table 2 provides a comparison of compounds CA39.1 and its comparative example CA39 and CA77.01 and its comparative example CA77.
A general note: In a reporter assay the amount or activity of a reporter protein is the signal.

Results on 2 compounds are retold here after patent US11834424B2, “Compounds useful as chaperone-mediated autophagy modulators” (ALBERT EINSTEIN COLLEGE OF MEDICINE, priority 2018, dated 2023).

`CC(=O)Nc1ccc(C2=Nc3ccc(Cl)cc3OC2)cc1` [CA77, reference compound]: the “CMA activity (fluorescent puncta per cell, relative to untreated cells = 1)” value amounted to 2.667 (Time 5), 3.331 (Time 10), 5.005 (Time 20) and 5.471 (Time 30).

Consider `CC(=O)Nc1ccc(-c2cnc3cc(Cl)ccc3n2)cc1` [CA77.1, N-(4-(6-chloroquinoxalin-2-yl)phenyl)acetamide], for which the “CMA activity (fluorescent puncta per cell, relative to untreated cells = 1)” value stood at 2.53 (Time 5), 3.365 (Time 10), 5.858 (Time 20) and 5.889 (Time 30).
